# Reference: PubChem BioAssay (NCI)
#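 Cultured in 96-well plates, cells were exposed to test compound for 48 hours across five concentrations. GI50: concentration for 50% inhibition of growth. TGI is the concentration that stops growth completely.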
# Experiments:
# Assay in all cases: NCI-60 cell line screen, 48 h
# HCT-116 colon = tested on: HCT-116 colon
# K-562 leukemia = tested on: K-562 leukemia
# SW-620 colon = tested on: SW-620 colon
# PC-3 prostate = tested on: PC-3 prostate
# MALME-3M melanoma = tested on: MALME-3M melanoma
# KM12 colon = tested on: KM12 colon
# SK-OV-3 ovarian = tested on: SK-OV-3 ovarian
# MOLT-4 leukemia = tested on: MOLT-4 leukemia
# IGROV1 ovarian = tested on: IGROV1 ovarian
# NCI-H522 lung = tested on: NCI-H522 lung
# NCI-H23 lung = tested on: NCI-H23 lung
# NCI-H226 lung = tested on: NCI-H226 lung
# OVCAR-5 ovarian = tested on: OVCAR-5 ovarian
# SN12C renal = tested on: SN12C renal
# CCRF-CEM leukemia = tested on: CCRF-CEM leukemia
# OVCAR-3 ovarian = tested on: OVCAR-3 ovarian
# HCT-15 colon = tested on: HCT-15 colon
# BT-549 breast = tested on: BT-549 breast
# SF-268 CNS = tested on: SF-268 CNS
# UACC-257 melanoma = tested on: UACC-257 melanoma
# ACHN renal = tested on: ACHN renal
# UACC-62 melanoma = tested on: UACC-62 melanoma
# DU-145 prostate = tested on: DU-145 prostate
# MDA-MB-435 = tested on: MDA-MB-435
# MCF7 breast = tested on: MCF7 breast
# HOP-92 NSCLC = tested on: HOP-92 NSCLC
# SF-295 CNS = tested on: SF-295 CNS
# A549 NSCLC = tested on: A549 NSCLC
# OVCAR-4 ovarian = tested on: OVCAR-4 ovarian
smiles,measurement,setting,value
O=c1cccc(C#CC#CCCCO)o1,GI50,HCT-116 colon,3.06 µM
same,TGI,HCT-116 colon,8.49 µM
same,GI50,K-562 leukemia,4.08 µM
same,TGI,K-562 leukemia,> 100 µM
same,GI50,SW-620 colon,2.67 µM
same,GI50,PC-3 prostate,3.13 µM
same,TGI,PC-3 prostate,> 22.8 µM
same,GI50,MALME-3M melanoma,0.788 µM
same,TGI,MALME-3M melanoma,3.78 µM
same,GI50,KM12 colon,0.834 µM
same,TGI,KM12 colon,9.26 µM
same,GI50,SK-OV-3 ovarian,18.5 µM
same,TGI,SK-OV-3 ovarian,45.4 µM
same,GI50,MOLT-4 leukemia,4.82 µM
same,TGI,MOLT-4 leukemia,> 28.8 µM
same,GI50,IGROV1 ovarian,2.65 µM
same,TGI,IGROV1 ovarian,> 22.1 µM
same,GI50,NCI-H522 lung,3.55 µM
same,TGI,NCI-H522 lung,> 32 µM
same,GI50,NCI-H23 lung,4.17 µM
same,TGI,NCI-H23 lung,11.7 µM
same,GI50,NCI-H226 lung,13.8 µM
same,TGI,NCI-H226 lung,32.5 µM
same,GI50,OVCAR-5 ovarian,5.57 µM
same,TGI,OVCAR-5 ovarian,11.6 µM
same,GI50,SN12C renal,5.21 µM
same,TGI,SN12C renal,16.7 µM
same,GI50,CCRF-CEM leukemia,5.73 µM
same,TGI,CCRF-CEM leukemia,> 100 µM
same,GI50,OVCAR-3 ovarian,1.93 µM
same,TGI,OVCAR-3 ovarian,4.94 µM
same,GI50,HCT-15 colon,2.11 µM
same,TGI,HCT-15 colon,5.3 µM
same,GI50,BT-549 breast,7.95 µM
same,TGI,BT-549 breast,23.6 µM
same,GI50,SF-268 CNS,7.71 µM
same,TGI,SF-268 CNS,18.5 µM
same,GI50,UACC-257 melanoma,3.48 µM
same,TGI,UACC-257 melanoma,15.8 µM
same,GI50,ACHN renal,12.4 µM
same,TGI,ACHN renal,24.9 µM
same,GI50,UACC-62 melanoma,4.42 µM
same,TGI,UACC-62 melanoma,10.5 µM
same,GI50,DU-145 prostate,2.37 µM
same,TGI,DU-145 prostate,5.86 µM
same,GI50,MDA-MB-435,4.99 µM
same,TGI,MDA-MB-435,13.6 µM
same,GI50,MCF7 breast,5.02 µM
same,TGI,MCF7 breast,38.3 µM
same,GI50,HOP-92 NSCLC,2.47 µM
same,TGI,HOP-92 NSCLC,6.13 µM
same,GI50,SF-295 CNS,13.5 µM
same,TGI,SF-295 CNS,28.9 µM
same,GI50,A549 NSCLC,17.8 µM
same,TGI,A549 NSCLC,> 58.8 µM
same,GI50,OVCAR-4 ovarian,8.59 µM
same,TGI,OVCAR-4 ovarian,> 57.9 µM
